Results taken from patent US20220260574A1, “METHODS OF DETERMINING THERAPIES BASED ON SINGLE CELL CHARACTERIZATION OF CIRCULATING TUMOR CELLS (CTCS) IN METASTATIC DISEASE” (Epic Sciences, Inc., priority 2017, published 2022).
Where two headings read alike, the source gives them in different places.

Legend:
mCRPC patients [1] = assay: Carboplatin therapy in mCRPC patients with high vs low pLST baseline CTCs (PSA response); format: in vivo, human
mCRPC patients [2] = assay: Single CTC sequencing of a 2nd line post taxane patient treated with enzalutamide; format: in vivo, human; conditions: 2nd line post taxane patient with lack of clonal diversity
Description: Phlebotomy samples were obtained at a Decision Point in management: therapy was chosen by the treating physician. Standard of care collection from 221 mCRPC patients at decision points. Baseline blood draw prior to A, E or T. Followed by PSA, time on drug, radiographic progression free (rPFS) & overall survival (OS). 9225 CTCs identified and characterized phenotypically. 741 CTCs from 31 patients were studied by whole genome CNV for clonality and gene amplifications/deletions. Patients were ranked based on how heterogeneous or diverse the cells were at each decision point. […] After a CTC is phenotypically measured, the coverslip is removed and the individual CTC is aspirated and put into an individual tube. The CTCs are amplified and prepared for sequencing (FIG. 15). Following sequencing informatics were performed to assess clonality and amplification/deletions (FIG. 15). […] Each patient sample was analyzed separately. Single CTC genomic CNV plots were curated individually versus other CTCs in patient sample. Clonality was characterized based on large genomic variations and focal amplifications or deletion of known driver alterations in at least 2 CTCs, for example, two cells from same patient with or without a loss of chromosome 5q or two clones from a patient with and without AR amplification (FIG. 16).

mCRPC patients [3] = test system: mCRPC patients
[4] = one 8th line mCRPC patient with 4.3% baseline CTCs as high pLST
[5] = one 10th line mCRPC patient with 96% baseline CTCs as high pLST
[6] = patients without vs with the presence of cell type K

Structure (SMILES)	12 week PSA change (mCRPC patients [1]; [4])	response to carboplatin therapy (mCRPC patients [1]; [4])	12 week PSA change (mCRPC patients [1]; [5])	response to carboplatin therapy (mCRPC patients [1]; [5])	response to therapy (mCRPC patients [2])	Time on therapy (Tx) (mCRPC patients [3]; all patients, Abi vs Enza)	overall survival (OS) (mCRPC patients [3]; all patients, Abi vs Enza)	radiographic Progression Free Survival (rPFS) (mCRPC patients [3]; all patients, Enza vs Abi, p=0.025)	HR (hazards of death, overall survival), feature Therapy (mCRPC patients [3]; multivariate cox model, =0 if Abi, =1 if Enza, p 0.4167)	HR (hazards of death, overall survival), feature Cell Type K: Therapy Interaction (mCRPC patients [3]; multivariate cox model, =0 if not K+ and Enza, =1 if K+ and Enza, p 0.0306)	hazards of death, therapy favoured in multivariate cox proportional hazards model (mCRPC patients [3]; patients without the presence of cell type K)	OS (mCRPC patients [3]; patients without the presence of cell type K, Enza vs Abi)	rPFS (mCRPC patients [3]; patients without the presence of cell type K, Enza vs Abi, p=0.006)	OS (mCRPC patients [3]; [6])	Time on Tx (mCRPC patients [3]; [6])	rPFS (mCRPC patients [3]; [6])
N.N.O=C([O-])C1(C(=O)[O-])CCC1.[Pt+2] [carboplatin]	+2.1%	did not respond	−50.1%	responded	–	–	–	–	–	–	–	–	–	–	–	–
CNC(=O)c1ccc(N2C(=S)N(c3ccc(C#N)c(C(F)(F)F)c3)C(=O)C2(C)C)cc1F [enzalutamide]	–	–	–	–	responded	similar	similar	significantly better	0.6543	5.2792	more favorable	no difference	significantly better	significant improvement	significant improvement	significant improvement
